According to US8710252B2, “Hepodxilin analog enantiomers” (priority 2006, dated 2014):
“Also recorded” adds a separate entry of the source.

Legend:
washed human platelets = test: I-BOP evoked human platelet aggregation in vitro with washed platelets; type: cell-based; conditions: for IC50: washed human platelets, 5 ng I-BOP, compounds are methyl esters, read-out: IC50, inhibition of I-BOP evoked human platelet aggregation
Experimental: Washed human platelets were prepared as previously described (Pace-Asciak et al., 2002). The aggregation of platelets was carried out in a conventional 4-well aggregometer with stirring of the suspension maintained at 37° C. The platelet suspension was caused to aggregate with a thromboxane stable analog, I-BOP. The isolated enantiomer compounds and their respective racemates, PBT-3 and PBT-4, were added at various concentrations to cuvettes containing 375×10^6 platelets/ml, 1 min prior to the addition of 5 ng I-BOP (Cayman Chemicals, Ann Arbor, Mich.). Aggregation was monitored for an additional 5 min.

[1] = system: human leukemic K562 cells; test: Inhibition of 3H-methyl thymidine incorporation (cell proliferation) in K562 cells; type: cell-based; conditions: for IC50: 6 h treatment, compounds are methyl esters
Experimental: The human leukemic K562 cell line was established as previously reported (Qiao et al., 2003). Cells were maintained as suspension cultures in RPMI 1640 medium supplemented with 100 1.1/ml penicillin G, 100 μg/ml streptomycin, 10% (v/v) […] in a humidified atmosphere of 5% CO2 at 37° C. Cell viability was assessed by the exclusion of Trypan blue. Incorporation of ^3H-methyl thymidine into cell DNA was used as an assay for cell proliferation. Cells ([…]) were starved for 12 h, and were subsequently treated with the test compounds. Compounds A, B, C and D were made up at various concentrations in DMSO ([…] A, B, C and D. Concentrations were doubled for racemates PBT-3 and PBT-4) and 1 of these solutions was added/ml volume of cells. Cells were suspended in RPMI 1640 medium. At 6 h post-treatment at 37° C. the cells were fixed and denatured essentially as described in Qiao et al. (2003), harvested and passed through Whatman GF/C glass filters. The filters were washed and counted for radioactivity.

[2] = system: Caspase-3 cleavage in K562 cells; test: Caspase-3 cleavage in K562 cells, Western blot; type: cell-based, human; conditions: 10 uM, 6 h; for Cleavage of caspase-3: FIG. 7
Experimental: Cell culture: Human leukemia K562 cells, obtained from ATCC (American Type Culture Collection), were maintained in RPMI 1640 medium containing 100 units/ml penicillin G, 100 μg/ml streptomycin, 10% (v/v) fetal calf serum in a humidified atmosphere with 5% CO2 at 37° C. The ability of the cells to exclude trypan Blue dye was used to assess cell viability.
Cell treatment: K562 cells were stored in 0.5% FBS for 15 min before the experiment. The cells, 6×10^5, were treated with DMSO as vehicle, or with PBT-3, PBT-4, or compounds A, B, C and D at 10 uM/dish (8 ml). Gleevec™ (STI) was used at 5 μM/dish. All experiments were without FBS and treatment lasted 6 h at 37° C. Treatment was terminated by washing the cells with ice-cold PBS buffer by centrifugation at 500×g for 5 min. Cells were lysed in buffer containing 20 mM Tris-HCl buffer, pH 7.4, 150 NaCl, 1 mM EDTA, 1 mM EGTA, 1% Triton X-100 2.5 mM sodium pyrophosphate, 1 mM beta-glycerophosphate, 1 mM sodium orthovanadate, 1 mM PMSF and 1 μM leupeptin/1 μM Aprotinin/1 μM pepstain A, on ice for 30 min. The lysates were clarified by centrifugation at 15,000×g for 15 min at 4° C. Lysates were subjected to protein assay (BCA, Pierce) and kept at −80° C.
Western blot: Thirty micrograms of protein from each sample were taken, and SDS-PAGE sample loading buffer was added. The mixture was boiled for 5 min. After centrifugation, the samples were loaded onto 15% SDS-PAGE gel and the gel was run (BioRad Protein II) for 2-3 h at 20 mA. The protein was transferred to a Trans-blot Nitrocellulose membrane (Millipore). Protein bands on the membranes were checked visually with Ponceau S-staining to ensure equivalent protein load/transfer comparing different samples. Membranes were blocked with 5% non-fat dry milk in PBS containing 0.5% Tween-20 for 1 h at room temperature, and then incubated with 1:1000 dilution of anti-caspase-3 antibody (BD Transduction Laboratories, Mississauga, Canada) overnight at 4° C. Secondary antibody of horseradish peroxidase anti-mouse antibody was used at 1:2000 dilution. Bound antibodies were detected by using enhanced chemilluminescence (ECL kit, Amersham Pharmacia Biotech) and the membranes were exposed to Hyper film for ECL detection. The same membrane was stripped by placing in buffer containing 62.5 mM Tris-HCl, pH 6.8/2% SDS/100 mM beta-mercaptoethanol at 50° C. for 30 min. The membrane was washed 3 times with PBS containing 0.5% Tween-20. The membrane was blocked by PBS buffer containing 0.5% Tween-20 and 5% skim milk. The anti-tubulin antibody (Santa Cruz, Calif.) was diluted 1:1000 and membrane analyzed by ECL as described above.

[3] = biological target: T1, Ga14-DBD-PPAR gamma-LBD fusion protein (Homo sapiens, UniProt P37231); test: PPAR gamma transactivation assay (Gal4-PPAR gamma LBD / UASx4-TK-luc reporter); type: cell-based
T1 construct: expressed in transfected cells; host or cells: mouse embryonic fibroblasts (MEFs) or ME3 cells
T1 sequence (P37231 238-503 limits assumed): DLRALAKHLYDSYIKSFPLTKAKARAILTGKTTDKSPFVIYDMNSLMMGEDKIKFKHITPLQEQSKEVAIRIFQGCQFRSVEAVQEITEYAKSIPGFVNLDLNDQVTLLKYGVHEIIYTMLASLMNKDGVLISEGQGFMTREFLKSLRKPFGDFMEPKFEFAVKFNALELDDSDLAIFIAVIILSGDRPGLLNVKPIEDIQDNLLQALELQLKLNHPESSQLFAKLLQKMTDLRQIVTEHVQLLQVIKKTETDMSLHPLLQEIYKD
Source text: The UASx4-TK-luc reporter construct (where UAS refers to “upstream activator sequence”) contains four Ga14-responsive elements. The plasmid Ga14-PPAR gammaLBD encodes a Ga14-DBD-PPAR gamma-LBD fusion protein (i.e. the DNA-binding domain, DBD, of Ga14 fused to the ligand-binding domain, LBD, of PPAR gamma) capable of transactivating the UASx4-TK-luc reporter plasmid by binding to the UAS. The CMV-beta-galactosidase plasmid (where CMV is cytomegalovirus) was used for normalization of experimental values.
The cells were replated, typically in 24 well plates, so that at the time of transfection the cells were 50-70% confluent.
Briefly, per well in a 24 well plate, UASx4TKIuc (0.2 microg) Ga14-PPAR gammaLBD (or pM-hPPAR gamma-LBD; 0.1 microg) and CMV-beta-galactosidase (0.05 microg) in 30 μL DMEM (free of serum and antibiotics) was mixed with 30 microL DMEM (free of serum and antibiotics) containing 1 microL metafectenein. The mixture was incubated at room temperature for 20 min to allow formation of nucleic acid-lipid complexes and then approximately 60 micros was added to each well containing the 50-70% confluent cells. […] Cells were harvested after 12-24 hours and luciferase and beta-galactosidase activities were measured according to standard protocols.
Each experiment was carried out with triplicate samples with 0.1, 1 or 10 microM racemate or purified enantiomer.

IC50 (washed human platelets) [µM] | IC50 [1] [µM] | PPAR gamma transactivation, result in words [3] | PPAR Activation as % of positive control (Avandia) ([3]; Experiment 1, 0.1 microM) | PPAR Activation as % of positive control (Avandia) ([3]; Experiment 1, 1 microM) | PPAR Activation as % of positive control (Avandia) ([3]; Experiment 2, 0.1 microM) | PPAR Activation as % of positive control (Avandia) ([3]; Experiment 2, 1 microM) | PPAR Activation as % of positive control (Avandia) ([3]; Experiment 2, 10 microM) | PPAR Activation as % of positive control (Avandia) ([3]; Experiment 3, 0.1 microM) | PPAR Activation as % of positive control (Avandia) ([3]; Experiment 3, 1 microM) | PPAR Activation as % of positive control (Avandia) ([3]; Experiment 3, 10 microM) | Structure (SMILES) | Potency relative to Compound B, inhibition of platelet aggregation (washed human platelets; I-BOP evoked aggregation) | Potency relative to racemic PBT-3, inhibition of platelet aggregation (washed human platelets; I-BOP evoked aggregation) | Potency relative to racemic PBT-3, inhibition of platelet aggregation (washed human platelets; I-BOP evoked aggregation, listed as compound A) [fold] | Cleavage of caspase-3 compared with Compound B [2] | Cleavage of caspase-3 [2] | PPAR Activation as % of positive control (Avandia) ([3]; Experiment 1, 10 microM) | Activity relative to Compound D, cell proliferation assay [1] [fold]
0.027 ± 0.007 | 3.6 | no apparent difference | 11 +/− 4 % of positive control (Avandia) | 14 +/− 4 % of positive control (Avandia) | 4 +/− 1 % of positive control (Avandia) | 11 +/− 1 % of positive control (Avandia) | 34 +/− 1 % of positive control (Avandia) | 8 +/− 2 % of positive control (Avandia) | 12 +/− 1 % of positive control (Avandia) | 27 +/− 5 % of positive control (Avandia) | CCCCC/C=C\C[C@H]1C[C@@H]1[C@H](O)/C=C\C/C=C\CCCC(=O)OC [Compound A, 10R-hydroxy-11S,12S-cyclopropyl-eicosa-5Z,8Z,14Z-trienoic acid methyl ester] | nearly four times as active; also recorded: about four times more potent | twice as potent | 2 | more active than Compound B | increased cleavage of caspase-3 | 63 +/− 34 % of positive control (Avandia) | –
0.06 ± 0.012 | 4 | – | 14 +/− 4 % of positive control (Avandia) | 16 +/− 3 % of positive control (Avandia) | 4 +/− 1 % of positive control (Avandia) | 6 +/− 1 % of positive control (Avandia) | 14 +/− 1 % of positive control (Avandia) | 9 +/− 3 % of positive control (Avandia) | 7 +/− 1 % of positive control (Avandia) | 17 +/− 3 % of positive control (Avandia) | CCCCC/C=C\CC1CC1C(O)/C=C\C/C=C\CCCC(=O)OC (stereo not drawn) [Compound C, 10R-hydroxy-11R,12R-cyclopropyl-eicosa-5Z,8Z,14Z-trienoic acid methyl ester] | – | – | – | – | increased cleavage of caspase-3 | 38 +/− 8 % of positive control (Avandia) | 1.3

Structure (SMILES) | IC50 (washed human platelets) [µM] | IC50 [1] [µM] | PPAR gamma transactivation, result in words [3] | PPAR Activation as % of positive control (Avandia) ([3]; Experiment 1, 0.1 microM) | PPAR Activation as % of positive control (Avandia) ([3]; Experiment 1, 1 microM) | PPAR Activation as % of positive control (Avandia) ([3]; Experiment 2, 0.1 microM) | PPAR Activation as % of positive control (Avandia) ([3]; Experiment 2, 1 microM) | PPAR Activation as % of positive control (Avandia) ([3]; Experiment 2, 10 microM) | PPAR Activation as % of positive control (Avandia) ([3]; Experiment 3, 0.1 microM) | PPAR Activation as % of positive control (Avandia) ([3]; Experiment 3, 1 microM) | PPAR Activation as % of positive control (Avandia) ([3]; Experiment 3, 10 microM) | Potency relative to Compound B, inhibition of platelet aggregation (washed human platelets; I-BOP evoked aggregation) | Potency relative to racemic PBT-3, inhibition of platelet aggregation (washed human platelets; I-BOP evoked aggregation) | Potency relative to racemic PBT-3, inhibition of platelet aggregation (washed human platelets; I-BOP evoked aggregation, listed as compound A) [fold] | Cleavage of caspase-3 compared with Compound B [2] | Cleavage of caspase-3 [2] | PPAR Activation as % of positive control (Avandia) ([3]; Experiment 1, 10 microM) | Activity relative to Compound D, cell proliferation assay [1] [fold]
CCCCC/C=C\CC1CC1C(O)/C=C\C/C=C\CCCC(=O)OC (stereo not drawn) [Compound B, 10S-hydroxy-11R,12R-cyclopropyl-eicosa-5Z,8Z,14Z-trienoic acid methyl ester] | 0.101 ± 0.027 | 7.6 | no apparent difference | 11 +/− 3 % of positive control (Avandia) | 21 +/− 3 % of positive control (Avandia) | 4 +/− 1 % of positive control (Avandia) | 10 +/− 1 % of positive control (Avandia) | 35 +/− 11 % of positive control (Avandia) | 10 +/− 3 % of positive control (Avandia) | 16 +/− 6 % of positive control (Avandia) | 30 +/− 10 % of positive control (Avandia) | – | – | – | – | increased cleavage of caspase-3 | 44 +/− 11 % of positive control (Avandia) | –
CCCCC/C=C\CC1CC1C(O)/C=C\C/C=C\CCCC(=O)OC (stereo not drawn) [Compound D, 10S-hydroxy-11S,12S-cyclopropyl-eicosa-5Z,8Z,14Z-trienoic acid methyl ester] | 0.082 ± 0.018 | 5.2 | more effectively than Compound C; also recorded: improved PPAR gamma transactivating activity over Compound C; also recorded: higher fold PPAR gamma transactivation than compound C | 14 +/− 3 % of positive control (Avandia) | 17 +/− 3 % of positive control (Avandia) | 4 +/− 1 % of positive control (Avandia) | 5 +/− 1 % of positive control (Avandia) | 18 +/− 1 % of positive control (Avandia) | 7 +/− 2 % of positive control (Avandia) | 8 +/− 1 % of positive control (Avandia) | 33 +/− 7 % of positive control (Avandia) | – | – | – | – | increased cleavage of caspase-3 | 69 +/− 15 % of positive control (Avandia) | –
